Source: PubChem BioAssay (NCI)
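1) Cells in 96-well plates. 2) Compound, 48 h, 5 concentrations. 3) Linear interpolation between surrounding doses. 4) Unreached endpoint = highest concentration. GI50 is the concentration that inhibits growth by half. TGI: concentration producing complete growth inhibition.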

Assays:
Assay in all cases: inhibition of tumour cell growth, NCI panel, 48 h
786-0 renal = system: 786-0 renal
A549 NSCLC = system: A549 NSCLC
ACHN renal = system: ACHN renal
CAKI-1 renal = system: CAKI-1 renal
CCRF-CEM leukemia = system: CCRF-CEM leukemia
COLO 205 colon = system: COLO 205 colon
DU-145 prostate = system: DU-145 prostate
EKVX NSCLC = system: EKVX NSCLC
HCC-2998 colon = system: HCC-2998 colon
HCT-116 colon = system: HCT-116 colon
HCT-15 colon = system: HCT-15 colon
HOP-62 NSCLC = system: HOP-62 NSCLC
HOP-92 NSCLC = system: HOP-92 NSCLC
HT29 colon = system: HT29 colon
IGROV1 ovarian = system: IGROV1 ovarian
K-562 leukemia = system: K-562 leukemia
KM12 colon = system: KM12 colon
LOX IMVI melanoma = system: LOX IMVI melanoma
M14 melanoma = system: M14 melanoma
MALME-3M melanoma = system: MALME-3M melanoma
MCF7 breast = system: MCF7 breast
MDA-MB-231 breast = system: MDA-MB-231 breast
MDA-MB-435 = system: MDA-MB-435
MDA-N = system: MDA-N
MOLT-4 leukemia = system: MOLT-4 leukemia
NCI-H226 lung = system: NCI-H226 lung
NCI-H23 lung = system: NCI-H23 lung
NCI-H522 lung = system: NCI-H522 lung
NCI/ADR-RES ovarian = system: NCI/ADR-RES ovarian
OVCAR-4 ovarian = system: OVCAR-4 ovarian
OVCAR-5 ovarian = system: OVCAR-5 ovarian
OVCAR-8 ovarian = system: OVCAR-8 ovarian
PC-3 prostate = system: PC-3 prostate
RPMI-8226 leukemia = system: RPMI-8226 leukemia
RXF 393 renal = system: RXF 393 renal
SF-295 CNS = system: SF-295 CNS
SF-539 CNS = system: SF-539 CNS
SK-MEL-2 melanoma = system: SK-MEL-2 melanoma
SK-MEL-28 melanoma = system: SK-MEL-28 melanoma
SK-MEL-5 melanoma = system: SK-MEL-5 melanoma
SK-OV-3 ovarian = system: SK-OV-3 ovarian
SN12C renal = system: SN12C renal
SNB-19 CNS = system: SNB-19 CNS
SNB-75 CNS = system: SNB-75 CNS
T-47D breast = system: T-47D breast
TK-10 renal = system: TK-10 renal
U251 CNS = system: U251 CNS
UACC-257 melanoma = system: UACC-257 melanoma
UACC-62 melanoma = system: UACC-62 melanoma
UO-31 renal = system: UO-31 renal
A498 renal = system: A498 renal
BT-549 breast = system: BT-549 breast
HL-60(TB) leukemia = system: HL-60(TB) leukemia
HS 578T breast = system: HS 578T breast
NCI-H460 lung = system: NCI-H460 lung
OVCAR-3 ovarian = system: OVCAR-3 ovarian
SF-268 CNS = system: SF-268 CNS
SR leukemia = system: SR leukemia
SW-620 colon = system: SW-620 colon

## COc1nc2sc3c(c2c(=O)n1CCCSSCCCn1c(OC)nc2sc4c(c2c1=O)CCCC4)CCCC3
786-0 renal
  TGI: > 100 µM
A549 NSCLC
  TGI: > 100 µM
ACHN renal
  TGI: > 100 µM
CAKI-1 renal
  TGI: > 100 µM
CCRF-CEM leukemia
  TGI: > 100 µM
COLO 205 colon
  TGI: > 100 µM
DU-145 prostate
  TGI: > 100 µM
EKVX NSCLC
  TGI: > 100 µM
HCC-2998 colon
  TGI: > 100 µM
HCT-116 colon
  TGI: > 100 µM
HCT-15 colon
  TGI: > 100 µM
HOP-62 NSCLC
  TGI: > 100 µM
HOP-92 NSCLC
  TGI: > 100 µM
HT29 colon
  TGI: > 100 µM
IGROV1 ovarian
  TGI: > 100 µM
K-562 leukemia
  TGI: > 100 µM
KM12 colon
  TGI: > 100 µM
LOX IMVI melanoma
  TGI: > 100 µM
M14 melanoma
  TGI: > 100 µM
MALME-3M melanoma
  TGI: > 100 µM
MCF7 breast
  TGI: > 100 µM
MDA-MB-231 breast
  TGI: > 100 µM
MDA-MB-435
  TGI: > 100 µM
MDA-N
  TGI: > 100 µM
MOLT-4 leukemia
  TGI: > 100 µM
NCI-H226 lung
  TGI: > 100 µM
NCI-H23 lung
  TGI: > 100 µM
NCI-H522 lung
  TGI: > 100 µM
NCI/ADR-RES ovarian
  TGI: > 100 µM
OVCAR-4 ovarian
  TGI: > 100 µM
OVCAR-5 ovarian
  TGI: > 100 µM
OVCAR-8 ovarian
  TGI: > 100 µM
PC-3 prostate
  TGI: > 100 µM
RPMI-8226 leukemia
  TGI: > 100 µM
RXF 393 renal
  TGI: > 100 µM
SF-295 CNS
  TGI: > 100 µM
SF-539 CNS
  TGI: > 100 µM
SK-MEL-2 melanoma
  TGI: > 100 µM
SK-MEL-28 melanoma
  TGI: > 100 µM
SK-MEL-5 melanoma
  TGI: > 100 µM
SK-OV-3 ovarian
  TGI: > 100 µM
SN12C renal
  TGI: > 100 µM
SNB-19 CNS
  TGI: > 100 µM
SNB-75 CNS
  TGI: > 100 µM
T-47D breast
  TGI: > 100 µM
TK-10 renal
  TGI: > 100 µM
U251 CNS
  TGI: > 100 µM
UACC-257 melanoma
  TGI: > 100 µM
UACC-62 melanoma
  TGI: > 100 µM
UO-31 renal
  TGI: > 100 µM

## COc1ccc(NC(=O)c2sc3nc(C)c(C(O)c4ccccc4)cc3c2N)cc1 (configuration not stated)
786-0 renal
  GI50: 4.63 µM
  TGI: > 100 µM
A498 renal
  GI50: 0.212 µM
  TGI: 0.704 µM
A549 NSCLC
  GI50: 0.7 µM
  TGI: > 100 µM
ACHN renal
  GI50: 4.09 µM
  TGI: > 100 µM
BT-549 breast
  GI50: 6.13 µM
  TGI: 51.6 µM
CAKI-1 renal
  GI50: 3.52 µM
  TGI: > 100 µM
CCRF-CEM leukemia
  GI50: 2.54 µM
  TGI: > 100 µM
COLO 205 colon
  GI50: 3.08 µM
  TGI: 13.9 µM
DU-145 prostate
  GI50: 3.21 µM
  TGI: > 100 µM
EKVX NSCLC
  GI50: 4.38 µM
  TGI: > 100 µM
HCC-2998 colon
  GI50: 2.48 µM
  TGI: 24.1 µM
HCT-116 colon
  GI50: 2.71 µM
  TGI: > 100 µM
HCT-15 colon
  GI50: 1.44 µM
  TGI: > 100 µM
HL-60(TB) leukemia
  GI50: 2.76 µM
  TGI: 10.3 µM
HOP-62 NSCLC
  GI50: 3.67 µM
  TGI: > 100 µM
HOP-92 NSCLC
  GI50: 12.7 µM
  TGI: > 100 µM
HS 578T breast
  GI50: 1.73 µM
  TGI: 6.86 µM
HT29 colon
  GI50: 2.81 µM
  TGI: 88.8 µM
IGROV1 ovarian
  GI50: 3.63 µM
  TGI: > 100 µM
K-562 leukemia
  GI50: 1.01 µM
  TGI: > 100 µM
KM12 colon
  GI50: 2 µM
  TGI: 23.5 µM
LOX IMVI melanoma
  GI50: 4.25 µM
  TGI: > 100 µM
M14 melanoma
  GI50: 2.52 µM
  TGI: 38.3 µM
MALME-3M melanoma
  GI50: 3.22 µM
  TGI: 44.9 µM
MCF7 breast
  GI50: 0.502 µM
  TGI: 54.2 µM
MDA-MB-231 breast
  GI50: 2.96 µM
  TGI: > 100 µM
MDA-MB-435
  GI50: 0.291 µM
  TGI: 0.971 µM
MOLT-4 leukemia
  GI50: 3.57 µM
  TGI: 34 µM
NCI-H226 lung
  GI50: 4.87 µM
  TGI: > 100 µM
NCI-H23 lung
  GI50: 3.48 µM
  TGI: > 100 µM
NCI-H460 lung
  GI50: 0.357 µM
  TGI: 1.65 µM
NCI-H522 lung
  GI50: 2.21 µM
  TGI: 20.4 µM
NCI/ADR-RES ovarian
  GI50: 2.55 µM
  TGI: 9.03 µM
OVCAR-3 ovarian
  GI50: 2.48 µM
  TGI: 13.8 µM
OVCAR-4 ovarian
  GI50: 3.72 µM
  TGI: > 100 µM
OVCAR-5 ovarian
  GI50: 4.74 µM
  TGI: > 100 µM
OVCAR-8 ovarian
  GI50: 4.01 µM
  TGI: > 100 µM
PC-3 prostate
  GI50: 3.31 µM
  TGI: > 100 µM
RPMI-8226 leukemia
  GI50: 2.4 µM
  TGI: 14.4 µM
RXF 393 renal
  GI50: 2.25 µM
  TGI: 49.1 µM
SF-268 CNS
  GI50: 4.06 µM
  TGI: > 100 µM
SF-295 CNS
  GI50: 1.25 µM
  TGI: 18.2 µM
SF-539 CNS
  GI50: 2.24 µM
  TGI: 6.65 µM
SK-MEL-2 melanoma
  GI50: 4.88 µM
  TGI: 85.7 µM
SK-MEL-28 melanoma
  GI50: 6.93 µM
  TGI: > 100 µM
SK-MEL-5 melanoma
  GI50: 1.66 µM
  TGI: 4.04 µM
SK-OV-3 ovarian
  GI50: 4.59 µM
  TGI: > 100 µM
SN12C renal
  GI50: 3.36 µM
  TGI: > 100 µM
SNB-19 CNS
  GI50: 5.24 µM
  TGI: > 100 µM
SNB-75 CNS
  GI50: 1.49 µM
  TGI: 7.22 µM
SR leukemia
  GI50: 0.517 µM
  TGI: > 100 µM
SW-620 colon
  GI50: 2.64 µM
  TGI: 28.1 µM
T-47D breast
  GI50: 3.36 µM
  TGI: 98.3 µM
TK-10 renal
  GI50: 5.39 µM
  TGI: > 100 µM
U251 CNS
  GI50: 3.58 µM
  TGI: > 100 µM
UACC-257 melanoma
  GI50: 3.86 µM
  TGI: 46.1 µM
UACC-62 melanoma
  GI50: 2.93 µM
  TGI: > 100 µM
UO-31 renal
  GI50: 2.62 µM
  TGI: > 100 µM

## CC(NC(=O)OC(C)(C)C)C(=O)C(N)=O (configuration not stated)
786-0 renal
  TGI: > 100 µM
A498 renal
  TGI: > 100 µM
A549 NSCLC
  TGI: > 100 µM
ACHN renal
  TGI: > 100 µM
CCRF-CEM leukemia
  TGI: > 100 µM
COLO 205 colon
  TGI: > 100 µM
DU-145 prostate
  TGI: > 100 µM
EKVX NSCLC
  TGI: > 100 µM
HCC-2998 colon
  TGI: > 100 µM
HCT-116 colon
  TGI: > 100 µM
HCT-15 colon
  TGI: > 100 µM
HL-60(TB) leukemia
  TGI: > 100 µM
HOP-62 NSCLC
  TGI: > 100 µM
HOP-92 NSCLC
  TGI: > 100 µM
HS 578T breast
  TGI: > 100 µM
K-562 leukemia
  TGI: > 100 µM
LOX IMVI melanoma
  TGI: > 100 µM
M14 melanoma
  TGI: > 100 µM
MCF7 breast
  TGI: > 100 µM
MDA-MB-231 breast
  TGI: > 100 µM
MDA-MB-435
  TGI: > 100 µM
MDA-N
  TGI: > 100 µM
MOLT-4 leukemia
  TGI: > 100 µM
NCI-H226 lung
  TGI: > 100 µM
NCI-H23 lung
  TGI: > 100 µM
NCI-H460 lung
  TGI: > 100 µM
NCI/ADR-RES ovarian
  TGI: > 100 µM
OVCAR-5 ovarian
  TGI: > 100 µM
OVCAR-8 ovarian
  TGI: > 100 µM
PC-3 prostate
  TGI: > 100 µM
RPMI-8226 leukemia
  TGI: > 100 µM
SF-268 CNS
  TGI: > 100 µM
SF-539 CNS
  TGI: > 100 µM
SK-MEL-2 melanoma
  TGI: > 100 µM
SK-MEL-28 melanoma
  TGI: > 100 µM
SK-MEL-5 melanoma
  TGI: > 100 µM
SK-OV-3 ovarian
  TGI: > 100 µM
SN12C renal
  TGI: > 100 µM
SNB-19 CNS
  TGI: > 100 µM
SNB-75 CNS
  TGI: > 100 µM
SR leukemia
  TGI: > 100 µM
SW-620 colon
  TGI: > 100 µM
T-47D breast
  TGI: > 100 µM
TK-10 renal
  TGI: > 100 µM
U251 CNS
  TGI: > 100 µM
UO-31 renal
  TGI: > 100 µM
